According to the NIST ThermoML archive (doi:10.1021/je400055v):

Details: Liquid, Vibrating tube method

Cc1cccc(O)c1 [3-methylphenol]
Details	mass density [kg/m3]
313.22 K, 1001 kPa	1019.1
313.22 K, 2012 kPa	1019.8
313.22 K, 3024 kPa	1020.3
313.22 K, 4007 kPa	1020.9
313.22 K, 4992 kPa	1021.4
313.22 K, 6027 kPa	1022
313.22 K, 7013 kPa	1022.6
313.22 K, 8000 kPa	1023.1
313.22 K, 9008 kPa	1023.7
313.22 K, 10014 kPa	1024.3
313.22 K, 11015 kPa	1024.8
313.22 K, 12040 kPa	1025.4
313.22 K, 13022 kPa	1026
313.22 K, 14023 kPa	1026.4
313.22 K, 15002 kPa	1026.9
313.22 K, 16009 kPa	1027.5
313.22 K, 17020 kPa	1028
313.22 K, 18021 kPa	1028.5
313.22 K, 19016 kPa	1029
313.22 K, 20026 kPa	1029.6
313.22 K, 21024 kPa	1030.1
313.22 K, 22026 kPa	1030.7
313.22 K, 23030 kPa	1031.1
313.22 K, 24017 kPa	1031.6
313.22 K, 25019 kPa	1032.2
322.9 K, 1014 kPa	1011.2
322.9 K, 2041 kPa	1011.8
322.9 K, 3002 kPa	1012.4
322.9 K, 4014 kPa	1013
322.9 K, 5012 kPa	1013.6
322.9 K, 6022 kPa	1014.2
322.9 K, 7020 kPa	1014.7
322.9 K, 8018 kPa	1015.3
322.9 K, 9020 kPa	1015.9
322.9 K, 10005 kPa	1016.4
322.9 K, 11018 kPa	1017
322.9 K, 12019 kPa	1017.6
322.9 K, 13017 kPa	1018.2
322.9 K, 14010 kPa	1018.7
322.9 K, 15022 kPa	1019.3
322.9 K, 16000 kPa	1019.8
322.9 K, 17011 kPa	1020.4
322.9 K, 18018 kPa	1020.9
322.9 K, 19018 kPa	1021.4
322.9 K, 20009 kPa	1022
322.9 K, 21019 kPa	1022.6
322.9 K, 22019 kPa	1023.1
322.9 K, 23006 kPa	1023.6
322.9 K, 24012 kPa	1024.1
322.9 K, 25019 kPa	1024.7
332.61 K, 1018 kPa	1003.3
332.61 K, 2014 kPa	1004
332.61 K, 3003 kPa	1004.5
332.61 K, 4030 kPa	1005.2
332.61 K, 5000 kPa	1005.8
332.61 K, 6022 kPa	1006.4
332.61 K, 7020 kPa	1006.9
332.61 K, 8020 kPa	1007.5
332.61 K, 9003 kPa	1008.1
332.61 K, 10014 kPa	1008.7
332.61 K, 11012 kPa	1009.3
332.61 K, 12000 kPa	1009.9
332.61 K, 13000 kPa	1010.4
332.61 K, 14028 kPa	1011
332.61 K, 15028 kPa	1011.6
332.61 K, 16023 kPa	1012.2
332.61 K, 17000 kPa	1012.7
332.61 K, 18008 kPa	1013.3
332.61 K, 19000 kPa	1013.9
332.61 K, 20001 kPa	1014.4
332.61 K, 21013 kPa	1014.9
332.61 K, 22010 kPa	1015.5
332.61 K, 23007 kPa	1016
332.61 K, 24000 kPa	1016.6
332.61 K, 25008 kPa	1017.1
342.27 K, 2018 kPa	995.8
342.27 K, 2999 kPa	996.4
342.27 K, 3998 kPa	997
342.27 K, 4976 kPa	997.6
342.27 K, 5984 kPa	998.3
342.27 K, 7059 kPa	998.9
342.27 K, 8070 kPa	999.7
342.27 K, 8967 kPa	1000.2
342.27 K, 9994 kPa	1000.8
342.27 K, 10921 kPa	1001.4
342.27 K, 11964 kPa	1002.1
342.27 K, 12971 kPa	1002.6
342.27 K, 13954 kPa	1003.2
342.27 K, 14960 kPa	1004
342.27 K, 15941 kPa	1004.3
342.27 K, 16963 kPa	1005.1
342.27 K, 17992 kPa	1005.8
342.27 K, 18963 kPa	1006.2
342.27 K, 19996 kPa	1006.7
342.27 K, 21003 kPa	1007.5
342.27 K, 21974 kPa	1008
342.27 K, 22968 kPa	1008.7
342.27 K, 24051 kPa	1009.2
342.27 K, 24971 kPa	1009.7
352.06 K, 1951 kPa	988.5
352.06 K, 2979 kPa	989.1
352.06 K, 4034 kPa	989.8
352.06 K, 4966 kPa	990.3
352.06 K, 5929 kPa	990.9
352.06 K, 7014 kPa	991.6
352.06 K, 8011 kPa	992.2
352.06 K, 8921 kPa	992.8
352.06 K, 9982 kPa	993.4
352.06 K, 10938 kPa	994
352.06 K, 11975 kPa	994.6
352.06 K, 12999 kPa	995.3
352.06 K, 13907 kPa	995.8
352.06 K, 14981 kPa	996.5
352.06 K, 15966 kPa	997.1
352.06 K, 16996 kPa	997.7
352.06 K, 17984 kPa	998.3
352.06 K, 18991 kPa	998.9
352.06 K, 20005 kPa	999.5
352.06 K, 21038 kPa	1000.1
352.06 K, 22019 kPa	1000.6
352.06 K, 23001 kPa	1001.2
352.06 K, 24029 kPa	1001.8
352.06 K, 24969 kPa	1002.3
361.9 K, 1990 kPa	980.5
361.9 K, 3001 kPa	981.2
361.9 K, 4024 kPa	981.8
361.9 K, 5019 kPa	982.5
361.9 K, 6014 kPa	983.1
361.9 K, 7025 kPa	983.7
361.9 K, 8019 kPa	984.4
361.9 K, 9010 kPa	985
361.9 K, 9978 kPa	985.6
361.9 K, 11019 kPa	986.3
361.9 K, 12038 kPa	986.9
361.9 K, 13020 kPa	987.6
361.9 K, 14021 kPa	988.2
361.9 K, 15006 kPa	988.8
361.9 K, 15970 kPa	989.4
361.9 K, 16988 kPa	990.1
361.9 K, 17991 kPa	990.7
361.9 K, 19016 kPa	991.4
361.9 K, 20042 kPa	992
361.9 K, 20983 kPa	992.6
361.9 K, 22034 kPa	993.3
361.9 K, 23021 kPa	993.9
361.9 K, 24011 kPa	994.6
361.9 K, 24912 kPa	995.1
